Data: patent US5688938A, “Calcium receptor-active molecules” (priority 1995, dated 1997)
Read-outs that look alike come from different tables or passages of the source.

Experiments:
C-cell calcium receptor = target: T1, C-cell calcium receptor (Rattus norvegicus, UniProt P48442); experiment: cell-based; type: cell-based; conditions: for EC50: rMTC 6-23 cells
T1 construct: Neoplastic C-cells derived from a rat medullary thyroid carcinoma (rMTC 6-23) were obtained from American Type Culture Collection; host or cells: rMTC 6-23 cells
T1 sequence (P48442 20-1079): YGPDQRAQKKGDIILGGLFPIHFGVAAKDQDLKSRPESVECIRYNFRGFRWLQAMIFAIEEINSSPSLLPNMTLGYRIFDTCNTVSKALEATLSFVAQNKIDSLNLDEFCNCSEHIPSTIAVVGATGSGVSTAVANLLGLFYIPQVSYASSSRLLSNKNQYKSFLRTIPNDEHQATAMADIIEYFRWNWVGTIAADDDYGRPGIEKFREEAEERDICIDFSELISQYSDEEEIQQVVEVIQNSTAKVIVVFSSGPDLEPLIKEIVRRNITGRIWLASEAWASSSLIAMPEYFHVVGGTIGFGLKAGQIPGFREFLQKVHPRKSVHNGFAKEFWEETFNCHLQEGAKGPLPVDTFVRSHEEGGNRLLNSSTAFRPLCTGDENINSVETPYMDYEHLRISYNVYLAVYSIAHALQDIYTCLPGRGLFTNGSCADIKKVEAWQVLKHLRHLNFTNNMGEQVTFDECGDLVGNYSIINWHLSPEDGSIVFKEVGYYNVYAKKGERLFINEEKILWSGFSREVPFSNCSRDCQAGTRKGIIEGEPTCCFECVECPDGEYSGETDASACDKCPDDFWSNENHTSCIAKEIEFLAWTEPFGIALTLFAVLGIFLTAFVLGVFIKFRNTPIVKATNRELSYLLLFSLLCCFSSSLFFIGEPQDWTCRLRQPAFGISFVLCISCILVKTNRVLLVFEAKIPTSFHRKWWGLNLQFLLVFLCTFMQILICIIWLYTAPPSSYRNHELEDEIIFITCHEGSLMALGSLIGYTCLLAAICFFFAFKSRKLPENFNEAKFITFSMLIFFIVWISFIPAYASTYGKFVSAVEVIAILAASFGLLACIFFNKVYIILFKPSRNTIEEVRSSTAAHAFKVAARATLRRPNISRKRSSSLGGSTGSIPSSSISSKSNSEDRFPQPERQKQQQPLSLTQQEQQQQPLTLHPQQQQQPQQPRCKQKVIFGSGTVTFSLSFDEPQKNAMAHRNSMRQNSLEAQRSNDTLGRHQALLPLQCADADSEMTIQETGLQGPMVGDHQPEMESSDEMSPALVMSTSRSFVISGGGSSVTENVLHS
Text: To assess the effects of molecular polycations on C-cells, a neoplastic cell line, derived from a rat medullary thyroid carcinoma (rMTC 6-23 cells) was used.

[1] = hypocalcemic response in thyroidectomized rats; type: in vivo, rat; conditions: 3 to 100 mg/kg p.o.
Text: In subsequent studies, rats received a thyroidectomy (parathyroid glands intact). This surgical procedure effectively removed the C-cells secreting calcitonin and therefore enabled the relative contributions of PTH and calcitonin to the hypocalcemic effect of this compound to be determined. […] The only difference was that the rate of onset of the hypocalcemic response was somewhat delayed in thyroidectomized animals. […] Stimulatory effects of this compound on calcitonin secretion increases the rate of onset, but not the extent, of hypocalcemia.

[2] = serum/plasma Ca^2+, PTH and calcitonin in rats, oral; type: in vivo; conditions: rat, oral
Text: Rats (male, Sprague-Dawley, 250-300 g) were fed standard rat chow and fasted overnight prior to the experiment. NPS R-467 was suspended in corn oil and administered as a single oral dose through a gavage needle. Three hours later a sample of blood was taken from the tail vein and assessed for ionized Ca^2+ levels.

human parathyroid cells = experiment: PTH secretion from human parathyroid cells; type: cell-based
Procedure: PTH secretion was measured by first suspending cells in PCB containing 0.5 mM CaCl2 and 0.1% BSA.
For human cells, a commercially available radioimmunoassay kit (INS-PTH; Nichols Institute, Los Angeles, Calif.) which recognizes intact and N-terminal human PTH was used because GW-1 antibody recognizes human PTH poorly.

[3] = target: T2, parathyroid cell calcium receptor (Homo sapiens, UniProt P41180); experiment: [Ca^2+]i (fura-2) in human parathyroid cells; type: cell-based
T2 construct: Dissociated parathyroid cells were prepared from a parathyroid adenoma obtained by surgery from a patient with primary hyperparathyroidism; endogenous in cells; host or cells: primary dissociated human parathyroid cells (adenoma or hyperplastic tissue from surgery)
T2 sequence (P41180 20-1078): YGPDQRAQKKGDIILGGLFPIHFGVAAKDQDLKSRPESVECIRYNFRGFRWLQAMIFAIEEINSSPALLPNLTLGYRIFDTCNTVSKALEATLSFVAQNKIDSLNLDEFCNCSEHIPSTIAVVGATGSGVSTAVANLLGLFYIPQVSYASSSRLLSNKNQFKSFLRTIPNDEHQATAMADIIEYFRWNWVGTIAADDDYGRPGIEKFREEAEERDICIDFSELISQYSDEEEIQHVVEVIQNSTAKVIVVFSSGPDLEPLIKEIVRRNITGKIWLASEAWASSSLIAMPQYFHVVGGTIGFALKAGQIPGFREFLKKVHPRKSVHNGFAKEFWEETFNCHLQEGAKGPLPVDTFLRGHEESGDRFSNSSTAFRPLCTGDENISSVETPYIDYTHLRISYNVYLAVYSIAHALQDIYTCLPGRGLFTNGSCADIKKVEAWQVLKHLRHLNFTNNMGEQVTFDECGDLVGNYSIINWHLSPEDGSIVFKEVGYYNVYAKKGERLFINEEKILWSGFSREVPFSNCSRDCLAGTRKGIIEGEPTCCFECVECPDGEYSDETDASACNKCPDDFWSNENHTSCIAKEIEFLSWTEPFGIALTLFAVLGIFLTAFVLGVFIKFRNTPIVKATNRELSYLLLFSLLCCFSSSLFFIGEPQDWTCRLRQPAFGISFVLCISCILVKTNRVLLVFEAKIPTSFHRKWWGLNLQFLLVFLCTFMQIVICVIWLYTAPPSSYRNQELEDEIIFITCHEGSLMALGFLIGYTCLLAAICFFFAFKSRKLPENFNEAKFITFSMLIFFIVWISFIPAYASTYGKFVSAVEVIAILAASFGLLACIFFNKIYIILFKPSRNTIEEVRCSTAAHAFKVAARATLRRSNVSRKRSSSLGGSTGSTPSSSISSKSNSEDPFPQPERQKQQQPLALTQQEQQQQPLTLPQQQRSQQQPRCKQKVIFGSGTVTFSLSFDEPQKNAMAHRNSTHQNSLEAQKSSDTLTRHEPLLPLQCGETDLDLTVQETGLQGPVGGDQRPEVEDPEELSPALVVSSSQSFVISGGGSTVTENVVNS
Procedure: This section describes procedures used to obtain and treat parathyroid cells from calves and humans. […] Human parathyroid glands, were obtained from patients undergoing surgical removal of parathyroid tissue for primary or uremic hyperparathyroidism (uremic HPT), and were treated similarly to bovine tissue.
Dissociated parathyroid cells were prepared from a parathyroid adenoma obtained by surgery from a patient with primary hyperparathyroidism.

bovine parathyroid cells = experiment: PTH secretion from bovine parathyroid cells; type: cell-based
Text: In most experiments, cells loaded with fura-2 were also used in studies of PTH secretion.

NCCCNCCCCNCCCNCCCNCCCNC(=O)Cc1c[nH]c2ccccc12 [NPS 019, reference compound]
transient increase in [Ca^2+]i in C-cells (C-cell calcium receptor; 10 μM, 0.5 mM [Ca^2+]): refractory to inhibition by La^3+
EC50 (C-cell calcium receptor; Table 6, read-out: EC50 C-CELL): 5 µM
EC50 (C-cell calcium receptor; read-out: EC50 for mobilizing intracellular Ca^2+ in C-cells): 5 µM

COc1cccc([C@@H](C)NCCCc2ccccc2Cl)c1 [NPS R-568, (R)-(+)-N-[3-(2-chlorophenyl)propyl]-α-methyl-3-methoxybenzylamine]
hypocalcemic response in thyroidectomized animals [1]: hypocalcemic response equal in magnitude to that produced in sham-operated animals
hypocalcemic response after prior complete nephrectomy [2]: only marginally affected

NC[C@@H]1O[C@H](O[C@H]2[C@@H](O)[C@H](O[C@@H]3[C@@H](O)[C@H](N)C[C@H](N)[C@H]3O[C@H]3O[C@H](CN)[C@@H](O)[C@H](O)[C@H]3N)O[C@@H]2CO)[C@H](N)[C@@H](O)[C@@H]1O [Neomycin]
inhibition of PTH secretion (human parathyroid cells): inhibited PTH secretion from human parathyroid cells
increase in [Ca^2+]i ([3]; 20 μM): large increase in [Ca^2+ ]i
increases in [Ca^2+]i ([3]; human adenoma cells): not only a transient, but additionally a steady-state increase in [Ca^2+ ]i
EC50 ([3]; human parathyroid cells): 20 µM
effect on basal [Ca^2+]i in C-cells (C-cell calcium receptor): without effect on basal [Ca^2+ ]i
inhibition of PTH secretion (bovine parathyroid cells): inhibited PTH secretion to the same extent as extracellular Ca^2+
